{"source": "patent US5160526A", "about": "“Alkene stabilizers for 3-isothiazolone compounds” (priority 1991, dated 1992)", "key": {"[1]": {"format": "physicochemical", "details": "kerosene/diethylene glycol butyl ether", "procedure": "In a formulation comprised of 3 parts by weight of a mixture of 5-chloro-2-methyl-3-isothiazolone and 2-methyl-3-isothiazolone in a 3:1 ratio, 94 parts by weight of a mixture of kerosene […] and diethylene glycol butyl ether (20 parts by weight), 3 parts by weight norbornene stabilizer was added. The control had no norbornene.\nExample 9 was repeated except using 1 part by weight norbornene. No loss of 5-chloro-2-methyl-3-isothiazolone was observed after eight weeks at 55° C.\nExample 9 was repeated except using 1-tetradecene as stabilizer resulting in 86% 5-chloro-2-methyl-3-isothiazolone remaining after four weeks at 55° C. and complete loss by eight weeks."}, "[2]": {"format": "physicochemical", "details": "2-propanol, 55° C", "procedure": "Varying amounts of DHP were added and the vials put in a 55° C. oven. Active ingredient analysis was done periodically."}, "[3]": {"format": "physicochemical", "details": "DPG, 55° C", "procedure": "This solution was distributed into 6 vials (3 g each) and varying amounts of cyclohexene were added. The vials were then heated at 55° C. and analyzed periodically."}, "[4]": {"details": "2-propanol + 2% water, 55° C", "procedure": "A solution of 5-chloro-2methyl-3-isothiazolone (\"5-Chloro\") and 2-methyl-3-isothiazolone (\"2-Methyl\") (3.11 g) was prepared in 2-propanol (12.1 g). This solution was distributed in 6 vials. Water (2%) and varying amounts of norbornene were then added. These were then put in a 55° C. oven and analyzed periodically."}, "[5]": {"test": "Stabilization of 5-Chloro and 2-Methyl mixture by norbornene in 2-propanol, 55° C oven", "format": "physicochemical", "description": "This solution was distributed into 6 vials and varying amounts of norbornene added."}, "[6]": {"test": "Stabilization of 5-Chloro and 2-Methyl mixture by norbornene in dipropylene glycol containing 0.5% water, 55° C oven", "format": "physicochemical", "details": "DPG (0.5% water)", "procedure": "To 19.9 g of dipropylene glycol was added 0.1 g of water. […] This solution was distributed into 6 vials and varying amounts of norbornene were added."}, "[7]": {"format": "physicochemical", "details": "2-propanol/water systems"}}, "note": "Read-outs that look alike come from different tables or passages of the source."}
{"smiles": "Cn1sc(Cl)cc1=O", "note": "[5-chloro-2-methyl-3-isothiazolone]", "values": [{"measurement": "loss of 5-chloro-2-methyl-3-isothiazolone", "setting": "[1]; 1-tetradecene as stabilizer, by eight weeks at 55° C", "result": "complete loss"}, {"measurement": "loss of 5-chloro-2-methyl-3-isothiazolone", "setting": "[1]; 1 part by weight norbornene, eight weeks at 55° C", "result": "No loss"}, {"measurement": "5-chloro-2-methyl-3-isothiazolone left", "setting": "[1]; control, no norbornene, eight weeks at 55° C", "result": "no 5-chloro-2-methyl-3-isothiazolone left"}, {"measurement": "5-chloro-2-methyl-3-isothiazolone remaining", "setting": "[1]; 672 h", "result": 86, "unit": "%"}, {"measurement": "5-chloro-2-methyl-3-isothiazolone remaining", "setting": "[1]; 1344 h", "result": 100, "unit": "%"}, {"measurement": "2-Methyl (%) / 5-Chloro (%)", "setting": "[2]; 0% DHP, 0 days", "result": 11.6, "unit": "%"}, {"measurement": "2-Methyl (%) / 5-Chloro (%)", "setting": "[2]; 0% DHP, 12 days", "result": 0.4, "unit": "%"}, {"measurement": "2-Methyl (%) / 5-Chloro (%)", "setting": "[2]; 3.5% DHP, 0 days", "result": 11.1, "unit": "%"}, {"measurement": "2-Methyl (%) / 5-Chloro (%)", "setting": "[2]; 3.5% DHP, 12 days", "result": 0.1, "unit": "%"}, {"measurement": "2-Methyl (%) / 5-Chloro (%)", "setting": "[2]; 6.3% DHP, 0 days", "result": 10.8, "unit": "%"}, {"measurement": "2-Methyl (%) / 5-Chloro (%)", "setting": "[2]; 6.3% DHP, 12 days", "result": 0.1, "unit": "%"}, {"measurement": "2-Methyl (%) / 5-Chloro (%)", "setting": "[2]; 11.8% DHP, 0 days", "result": 10.2, "unit": "%"}, {"measurement": "2-Methyl (%) / 5-Chloro (%)", "setting": "[2]; 11.8% DHP, 12 days", "result": 0.6, "unit": "%"}, {"measurement": "2-Methyl (%) / 5-Chloro (%)", "setting": "[2]; 16.7% DHP, 0 days", "result": 9.7, "unit": "%"}, {"measurement": "2-Methyl (%) / 5-Chloro (%)", "setting": "[2]; 16.7% DHP, 12 days", "result": 0.5, "unit": "%"}, {"measurement": "2-Methyl (%) / 5-Chloro (%)", "setting": "[2]; 21.1% DHP, 0 days", "result": 9.2, "unit": "%"}, {"measurement": "2-Methyl (%) / 5-Chloro (%)", "setting": "[2]; 21.1% DHP, 12 days", "result": 0.4, "unit": "%"}, {"measurement": "2-Methyl (%) / 5-Chloro (%)", "setting": "[3]; 0% cyclohexene, 0 days", "result": 11.4, "unit": "%"}, {"measurement": "2-Methyl (%) / 5-Chloro (%)", "setting": "[3]; 0% cyclohexene, 13 days", "result": "< 0.1", "unit": "%"}, {"measurement": "2-Methyl (%) / 5-Chloro (%)", "setting": "[3]; 3.2% cyclohexene, 0 days", "result": 10.1, "unit": "%"}, {"measurement": "2-Methyl (%) / 5-Chloro (%)", "setting": "[3]; 3.2% cyclohexene, 13 days", "result": 0.19, "unit": "%"}, {"measurement": "2-Methyl (%) / 5-Chloro (%)", "setting": "[3]; 6.8% cyclohexene, 0 days", "result": 10.9, "unit": "%"}, {"measurement": "2-Methyl (%) / 5-Chloro (%)", "setting": "[3]; 6.8% cyclohexene, 13 days", "result": 0.10, "unit": "%"}, {"measurement": "2-Methyl (%) / 5-Chloro (%)", "setting": "[3]; 9.1% cyclohexene, 0 days", "result": 10.6, "unit": "%"}, {"measurement": "2-Methyl (%) / 5-Chloro (%)", "setting": "[3]; 9.1% cyclohexene, 13 days", "result": 8.6, "unit": "%"}, {"measurement": "2-Methyl (%) / 5-Chloro (%)", "setting": "[3]; 9.1% cyclohexene, 30 days", "result": 0.0, "unit": "%"}, {"measurement": "2-Methyl (%) / 5-Chloro (%)", "setting": "[3]; 11.8% cyclohexene, 0 days", "result": 10.5, "unit": "%"}, {"measurement": "2-Methyl (%) / 5-Chloro (%)", "setting": "[3]; 11.8% cyclohexene, 13 days", "result": 7.9, "unit": "%"}, {"measurement": "2-Methyl (%) / 5-Chloro (%)", "setting": "[3]; 11.8% cyclohexene, 30 days", "result": 0.0, "unit": "%"}, {"measurement": "2-Methyl (%) / 5-Chloro (%)", "setting": "[3]; 16.7% cyclohexene, 0 days", "result": 10.2, "unit": "%"}, {"measurement": "2-Methyl (%) / 5-Chloro (%)", "setting": "[3]; 16.7% cyclohexene, 13 days", "result": 9.0, "unit": "%"}, {"measurement": "2-Methyl (%) / 5-Chloro (%)", "setting": "[3]; 16.7% cyclohexene, 30 days", "result": 0.0, "unit": "%"}, {"measurement": "2-Methyl (%) / 5-Chloro (%)", "setting": "[4]; 0% norbornene, 0 days", "result": 12.2, "unit": "%"}, {"measurement": "2-Methyl (%) / 5-Chloro (%)", "setting": "[4]; 0% norbornene, 7 days", "result": 0.23, "unit": "%"}, {"measurement": "2-Methyl (%) / 5-Chloro (%)", "setting": "[4]; 1.2% norbornene, 0 days", "result": 16.7, "unit": "%"}, {"measurement": "2-Methyl (%) / 5-Chloro (%)", "setting": "[4]; 1.2% norbornene, 7 days", "result": 0.09, "unit": "%"}, {"measurement": "2-Methyl (%) / 5-Chloro (%)", "setting": "[4]; 2.3% norbornene, 0 days", "result": 16.5, "unit": "%"}, {"measurement": "2-Methyl (%) / 5-Chloro (%)", "setting": "[4]; 2.3% norbornene, 7 days", "result": 0.09, "unit": "%"}, {"measurement": "2-Methyl (%) / 5-Chloro (%)", "setting": "[4]; 4.2% norbornene, 0 days", "result": 16.2, "unit": "%"}, {"measurement": "2-Methyl (%) / 5-Chloro (%)", "setting": "[4]; 4.2% norbornene, 7 days", "result": 0.07, "unit": "%"}, {"measurement": "2-Methyl (%) / 5-Chloro (%)", "setting": "[4]; 8.1% norbornene, 0 days", "result": 15.7, "unit": "%"}, {"measurement": "2-Methyl (%) / 5-Chloro (%)", "setting": "[4]; 8.1% norbornene, 7 days", "result": "< 0.1", "unit": "%"}, {"measurement": "2-Methyl (%) / 5-Chloro (%)", "setting": "[4]; 14.1% norbornene, 0 days", "result": 14.7, "unit": "%"}, {"measurement": "2-Methyl (%) / 5-Chloro (%)", "setting": "[4]; 14.1% norbornene, 7 days", "result": 13.5, "unit": "%"}, {"measurement": "2-Methyl (%) / 5-Chloro (%)", "setting": "[4]; 14.1% norbornene, 21 days", "result": "< 0.1", "unit": "%"}, {"measurement": "stabilization with norbornene (in words)", "setting": "[5]", "result": "completely stabilized"}, {"measurement": "2-Methyl (%) / 5-Chloro (%)", "setting": "[6]; 0% norbornene, 0 days", "result": 11.7, "unit": "%"}, {"measurement": "2-Methyl (%) / 5-Chloro (%)", "setting": "[6]; 0% norbornene, 14 days", "result": 0.0, "unit": "%"}, {"measurement": "2-Methyl (%) / 5-Chloro (%)", "setting": "[6]; 0% norbornene, 30 days", "result": 0, "unit": "%"}, {"measurement": "2-Methyl (%) / 5-Chloro (%)", "setting": "[6]; 1.6% norbornene, 0 days", "result": 11.7, "unit": "%"}, {"measurement": "2-Methyl (%) / 5-Chloro (%)", "setting": "[6]; 1.6% norbornene, 14 days", "result": 0, "unit": "%"}, {"measurement": "2-Methyl (%) / 5-Chloro (%)", "setting": "[6]; 3.2% norbornene, 0 days", "result": 11.5, "unit": "%"}, {"measurement": "2-Methyl (%) / 5-Chloro (%)", "setting": "[6]; 3.2% norbornene, 14 days", "result": 10.4, "unit": "%"}, {"measurement": "2-Methyl (%) / 5-Chloro (%)", "setting": "[6]; 3.2% norbornene, 30 days", "result": 0.1, "unit": "%"}, {"measurement": "2-Methyl (%) / 5-Chloro (%)", "setting": "[6]; 6.5% norbornene, 0 days", "result": 11.2, "unit": "%"}, {"measurement": "2-Methyl (%) / 5-Chloro (%)", "setting": "[6]; 6.5% norbornene, 14 days", "result": 10.8, "unit": "%"}, {"measurement": "2-Methyl (%) / 5-Chloro (%)", "setting": "[6]; 6.5% norbornene, 30 days", "result": 10.1, "unit": "%"}, {"measurement": "2-Methyl (%) / 5-Chloro (%)", "setting": "[6]; 9.0% norbornene, 0 days", "result": 11.0, "unit": "%"}, {"measurement": "2-Methyl (%) / 5-Chloro (%)", "setting": "[6]; 9.0% norbornene, 14 days", "result": 10.7, "unit": "%"}, {"measurement": "2-Methyl (%) / 5-Chloro (%)", "setting": "[6]; 9.0% norbornene, 30 days", "result": 10.4, "unit": "%"}, {"measurement": "2-Methyl (%) / 5-Chloro (%)", "setting": "[6]; 14.3% norbornene, 0 days", "result": 10.5, "unit": "%"}, {"measurement": "2-Methyl (%) / 5-Chloro (%)", "setting": "[6]; 14.3% norbornene, 14 days", "result": 10.2, "unit": "%"}, {"measurement": "2-Methyl (%) / 5-Chloro (%)", "setting": "[6]; 14.3% norbornene, 30 days", "result": 9.7, "unit": "%"}]}
{"smiles": "C1=CC2C3C=CC(C3)C2C1", "note": "(centres unmarked) [dicylopentadiene]", "values": [{"measurement": "stabilizing properties (in words)", "setting": "[7]", "result": "failed to show any stabilizing properties"}]}
{"smiles": "C1=Cc2ccccc2C1", "note": "[indene]", "values": [{"measurement": "stabilizing properties (in words)", "setting": "[7]", "result": "failed to show any stabilizing properties"}]}
